{"source": "patent US6875748B2", "about": "“Compositions and methods for in vivo delivery of polynucleotide-based therapeutics” (Vical Incorporated, priority 2000, dated 2005)", "key": {"[1]": {"assay": "pH of the salt solutions", "type": "physicochemical", "details": "150 mM unless otherwise indicated"}, "[2]": {"tested_on": "mouse quadriceps muscle", "assay": "Luciferase expression in mouse quadriceps muscle after i.m. injection of plasmid VR1255 with auxiliary agents", "details": "50 μg VR1255 in 50 μl 150 mM sodium phosphate with added agents, day 7"}, "[3]": {"tested_on": "B16F10 tumor cells", "assay": "Anti-tumor effect of i.m. mIFN-α plasmid VR4111 in mice bearing subcutaneous B16F10 tumors", "type": "in vivo, mouse"}, "[4]": {"tested_on": "influenza nucleoprotein", "details": "9 weeks post-vaccination, versus saline"}, "[5]": {"tested_on": "mouse lung", "assay": "Luciferase expression in mouse lung 3 days after intranasal instillation of VR1223 complexed with GAP-DLRIE/DOPE", "type": "in vivo", "details": "day 3; for luciferase expression in lung: 132 μg VR1223 + GAP-DLRIE/DOPE"}, "[6]": {"tested_on": "rectus femoris muscle", "details": "no agent", "source_text": "Two milliliters of DNA were delivered as 1-ml injections into each rectus femoris muscle. Following injection, cats were monitored at 7 day intervals for serum hematocrit levels, which correlate with the expression of erythropoeitin."}, "[7]": {"tested_on": "mouse quadriceps muscle", "assay": "β-galactosidase expression in mouse quadriceps muscle after i.m. injection of plasmid VR1418", "procedure": "The luciferase content of the samples was calculated from Relative Light Units using a standard curve of purified firefly luciferase (Analytical Luminescence Laboratory, San Diego, Calif.; Cat. No. 2400), which was diluted in pooled extract from uninjected muscles to control for quenching. Luciferase values were expressed as ng luciferase per muscle. […] A standard curve, prepared in pooled extract from uninjected muscles, was included on each plate using the β-galactosidase enzyme standard included in the kit.\n(§1) Muscle extracts were assayed for β-galactosidase and the serum was assayed for circulating levels of IFN-ω.\nQuadriceps muscles were injected with 50 μl of each solution containing 10 μg of plasmid VR1418, and the muscles were tested for 7-day expression levels."}, "[8]": {"tested_on": "influenza nucleoprotein", "details": "5 μg VR4700 days 0 and 21, 6 weeks"}, "[9]": {"tested_on": "β-galactosidase"}, "[10]": {"tested_on": "mouse quadriceps muscle", "assay": "Luciferase expression in mouse quadriceps muscle 7 days after i.m. injection of plasmid VR1223 in salt solutions", "type": "in vivo", "design": "lux: unit: ng/muscle", "details": "for lux: 7-day luciferase expression, VR1223; for luciferase expression, fold over saline: VR1223, day 7; for ng lux/muscle: reproducibility"}, "[11]": {"tested_on": "mouse quadriceps muscle", "assay": "Serum human IFN-ω after i.m. injection of plasmid VR4151", "type": "in vivo", "procedure": "as §1"}, "[12]": {"assay": "Osmolarity of the salt solutions", "type": "physicochemical", "details": "for Osm: 150 mM unless otherwise indicated"}, "[13]": {"tested_on": "mouse quadriceps muscle", "assay": "β-galactosidase-stained muscle fibers after i.m. injection of plasmid VR1412", "type": "in vivo", "details": "50 μg VR1412, day 7, n=10", "procedure": "For whole muscle staining, quadriceps were fixed for 3 hours at room temperature in 2% paraformaldehyde in PBS, washed 3 times for 20 min each in PBS and incubated for 18 hours at 37° C. in a solution containing 2 mM MgCl2, 5 mM potassium ferricferrocyanide and 1 mg/ml 5-bromo-4-chloro-3-indoyl-β-D-galactosidase (available from Life Technologies, Inc. (LTI), Gaithersberg, Md.) in PBS. After incubation, the muscles were washed 3 times for 10 min each in 3% dimethyl sulfoxide in PBS and stored in PBS at 4° C. until analysis. […] Sections were collected on 1% gelatin coated glass slides, brought to room temperature and stained for 2 hours at 37° C. in the same reagent as for whole mounts above except that the beta-galactosidase reagent concentration was 200 μg/ml. The sections were then counterstained with Harris hematoxylin in acetic acid, rinsed in tap water, dehydrated and mounted in Permount (Fisher, Fair Lawn, N.J.).\nIndividual muscle cells were examined for β-galactosidase expression as follows.\nWhole quadriceps muscle groups were harvested on day 7. Muscles were snap frozen in OTC medium (n=10 muscles for each group). 10 micron cross-sections were stained with x-gal (substrate for β-gal). Fibers expressing β-gal (stained blue) were counted."}, "[14]": {"tested_on": "mouse quadriceps muscle", "assay": "Hematocrit after i.m. injection of mouse erythropoietin plasmid (VR2901, VR2996)", "type": "in vivo", "details": "10 μg or 2.5 μg VR2901, four weeks", "procedure": "Hematocrits were measured by centrifugation of blood obtained from the retro-orbital cavity of mice. Blood samples were collected in 75 μl heparinized capillary tubes and analyzed using HemaSTAT II microhematocrit centrifuge (Separation Technology, Inc., Altamonte Springs, Fla.).\nThe mice were monitored over time for serum hematocrit levels, which correlate with the expression of erythropoeitin.\nThe mice were monitored over four weeks for serum hematocrit levels, which correlate with the expression of erythropoeitin.\nThe mice were monitored at days 0, 7, 14, 21, and 28 for serum hematocrit levels, which correlate with the expression of erythropoeitin.\nThe mice were monitored at days 7, 14, and 28 for serum hematocrit levels, which correlate with the expression of erythropoeitin. Control serum levels were measured before any injections."}, "[15]": {"details": "listed as 50 mM Sodium Phosphate"}, "[16]": {"details": "listed as 100 mM Sodium Phosphate"}, "[17]": {"details": "listed as 150 mM Sodium Phosphate"}, "[18]": {"details": "listed as 150 mM sodium phosphate"}, "[19]": {"details": "listed as 50 mM sodium phosphate"}, "[20]": {"details": "listed as 100 mM sodium phosphate"}}, "note": "Values joined by “and” are separate entries in the source; they are usually repeats but may differ in a detail not shown here. Equal values may be shown once. Read-outs that look alike come from different tables or passages of the source."}
{"smiles": "O=P(O)(O)O", "note": "[Sodium Phosphate]", "values": [{"measurement": "pH", "setting": "[1]", "result": 7.2}, {"measurement": "pH", "setting": "[1]; [15]", "result": 7.2}, {"measurement": "pH", "setting": "[1]; [16]", "result": 7.2}, {"measurement": "pH", "setting": "[1]; [17]", "result": 7.2}, {"measurement": "Average μg luciferase muscle", "setting": "[2]", "result": 0.37, "unit": "µg"}, {"measurement": "tumor volume", "setting": "[3]; 27 days, VR4111", "result": 955, "unit": "mm^3"}, {"measurement": "tumor growth versus blank DNA controls", "setting": "[3]; VR4111 100 μg i.m., up to 22 days", "result": "lower rate of tumor growth"}, {"measurement": "survival versus blank DNA in saline", "setting": "[3]; p<0.007, Kaplan-Meier", "result": "statistically significant survival difference"}, {"measurement": "mice surviving", "setting": "[3]; to day 41, VR4111", "result": "4 out of 10"}, {"measurement": "anti-NP specific CTL activity", "setting": "[4]", "result": "statistically similar"}, {"measurement": "luciferase expression in lung", "setting": "[5]; listed as 2.5 mM sodium phosphate", "result": 5.2, "unit": "ng lux/lung"}, {"measurement": "luciferase expression in lung", "setting": "[5]; [18]", "result": 0.22, "unit": "ng lux/lung"}, {"measurement": "luciferase expression in lung compared with water", "setting": "[5]", "result": "enhanced compared with water, but not as much as with 2.5 mM sodium phosphate"}, {"measurement": "luciferase expression in lung, fold compared with water", "setting": "[5]", "result": 5.5, "unit": "fold"}, {"measurement": "cats with elevated hematocrit", "setting": "[6]; group 3, 1 mg/ml DNA", "result": "one cat"}, {"measurement": "cats with elevated hematocrit", "setting": "[6]; groups 1 and 2, 5 and 3 mg/ml DNA", "result": "No cats"}, {"measurement": "β-galactosidase in muscle", "setting": "[7]; 10 μg VR1418, day 7", "result": 9.8, "unit": "ng/muscle"}, {"measurement": "optimal molar concentration for β-galactosidase expression", "setting": "[7]; 10 μg VR1418, day 7, data not shown", "result": 150, "unit": "mM"}, {"measurement": "β-galactosidase in muscle, fold over saline", "setting": "[7]; day 7", "result": 3.3, "unit": "fold"}, {"measurement": "serum anti-NP antibody titers", "setting": "[8]", "result": "enhanced serum anti-NP antibody titers compared with saline solution"}, {"measurement": "mice with anti-β-galactosidase antibody", "setting": "[9]; 10 μg VR1412, four weeks", "result": "none of the mice"}, {"measurement": "mice with anti-β-galactosidase antibody", "setting": "[9]; 10 μg VR1412, two weeks", "result": "none of the mice"}, {"measurement": "ng luciferase per muscle", "setting": "[10]; 50 μg VR1223 in 50 μl, day 7", "result": 386, "unit": "ng luciferase per muscle"}, {"measurement": "ng Lux/Muscle", "setting": "[10]; 50 μg VR1223 in 50 μl, salts at 150 mM, day 7", "result": 481, "unit": "ng/Muscle"}, {"measurement": "luciferase expression compared with saline (words)", "setting": "[10]; 80 mM, 100 mM, 150 mM and 200 mM sodium phosphate, p<0.05", "result": "significantly higher than saline"}, {"measurement": "luciferase in muscle, fold over saline", "setting": "[10]; Example 4, day 7", "result": 4.8, "unit": "fold"}, {"measurement": "luciferase in muscle", "setting": "[10]; Example 4, run in parallel, day 7", "result": 769, "unit": "ng/muscle"}, {"measurement": "enhancement over saline", "setting": "[10]; Exp. #1 (highest)", "result": 7.3, "unit": "fold"}, {"measurement": "enhancement over saline", "setting": "[10]; Exp. #9 (lowest)", "result": 2.5, "unit": "fold"}, {"measurement": "lux", "setting": "[10]; Table III-A", "result": 481}, {"measurement": "lux", "setting": "[10]; Table III-A, listed as 50 mM Sodium Phosphate", "result": 254}, {"measurement": "lux", "setting": "[10]; Table III-A, listed as 100 mM Sodium Phosphate", "result": 270}, {"measurement": "lux", "setting": "[10]; Table III-A, listed as 150 mM Sodium Phosphate", "result": 481}, {"measurement": "lux", "setting": "[10]; Table III-B, listed as 50 mM Sodium Phosphate", "result": 254}, {"measurement": "lux", "setting": "[10]; Table III-B, listed as 100 mM Sodium Phosphate", "result": 270}, {"measurement": "lux", "setting": "[10]; Table III-B, listed as 150 mM Sodium Phosphate", "result": 481}, {"measurement": "luciferase expression, fold over saline", "setting": "[10]; [19]", "result": 2.1, "unit": "fold"}, {"measurement": "luciferase expression, fold over saline", "setting": "[10]; [20]", "result": 2.3, "unit": "fold"}, {"measurement": "luciferase expression, fold over saline", "setting": "[10]; [18]", "result": "4.3 fold and 4 fold"}, {"measurement": "average enhancement over saline", "setting": "[10]; all 9 experiments", "result": 4.1, "unit": "fold"}, {"measurement": "ng luciferase/muscle", "setting": "[10]; average of all 9 experiments", "result": 490, "unit": "ng luciferase/muscle"}, {"measurement": "ng lux/muscle", "setting": "[10]; Exp. #1", "result": 362, "unit": "ng lux/muscle"}, {"measurement": "ng lux/muscle", "setting": "[10]; Exp. #9", "result": 384, "unit": "ng lux/muscle"}, {"measurement": "Fold Saline", "setting": "[10]; salts at 150 mM, relative to saline, day 7", "result": 4.0, "unit": "Fold"}, {"measurement": "luciferase expression compared with saline (words)", "setting": "[10]; sodium phosphate below 40 mM or above 300 mM", "result": "equal to or lower than those seen with saline"}, {"measurement": "serum IFN-ω levels", "setting": "[11]; 50 μg VR4151, day 7", "result": 0.35, "unit": "ng ml serum"}, {"measurement": "serum IFN-ω levels, fold over saline", "setting": "[11]; day 7", "result": 2.5, "unit": "fold"}, {"measurement": "Osm", "setting": "[12]; [15]", "result": 83, "unit": "mmol/kg"}, {"measurement": "Osm", "setting": "[12]; [16]", "result": 232, "unit": "mmol/kg"}, {"measurement": "Osm", "setting": "[12]; [17]", "result": 308, "unit": "mmol/kg"}, {"measurement": "osmolarity", "setting": "[12]; [19]", "result": 83, "unit": "mmol/kg"}, {"measurement": "osmolarity", "setting": "[12]; [20]", "result": 270, "unit": "mmol/kg"}, {"measurement": "osmolarity", "setting": "[12]; [18]", "result": 310, "unit": "mmol/kg"}, {"measurement": "β-galactosidase-positive myofiber cells", "setting": "[13]", "result": "186+/−43 myofiber cells/muscle section"}, {"measurement": "hematocrit versus plasmid DNA in saline", "setting": "[14]", "result": "higher hematocrit levels"}]}
